According to ChEMBL document CHEMBL1201862, “PubChem BioAssay data set” (2004):
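Cultured in 96-well plates, cells were exposed to test compound for 48 hours across five concentrations. At the GI50, growth is halved.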 The source made the active and inactive calls. No stated cut-off is given here; in the data, active = GI50 up to about 1.1 µM and inactive = higher.

Legend:
Assay in all cases: DTP human tumour cell line panel, 48 h
NCI-H226 = test system: NCI-H226
OVCAR-4 = test system: OVCAR-4
U-251 = test system: U-251
A498 = test system: A498
OVCAR-3 = test system: OVCAR-3
K562 = test system: K562
SF-268 = test system: SF-268
CCRF-CEM = test system: CCRF-CEM
SW-620 = test system: SW-620
UACC-257 = test system: UACC-257
DLD-1 = test system: DLD-1
SNB-19 = test system: SNB-19
SK-MEL-2 = test system: SK-MEL-2
Malme-3M = test system: Malme-3M
786-0 = test system: 786-0
HOP-92 = test system: HOP-92
SK-MEL-28 = test system: SK-MEL-28
HCC 2998 = test system: HCC 2998
SNB-78 = test system: SNB-78
NCI-H23 = test system: NCI-H23
CAKI-1 = test system: CAKI-1
HL-60 = test system: HL-60
LOX IMVI = test system: LOX IMVI
SN12C = test system: SN12C
SNB-75 = test system: SNB-75
HOP-62 = test system: HOP-62
UACC-62 = test system: UACC-62
OVCAR-5 = test system: OVCAR-5
A549 = test system: A549
UO-31 = test system: UO-31
SK-OV-3 = test system: SK-OV-3
SF-539 = test system: SF-539
IGROV-1 = test system: IGROV-1
NCI-H522 = test system: NCI-H522
TK-10 = test system: TK-10
XF498 = test system: XF498
COLO 205 = test system: COLO 205
MOLT-4 = test system: MOLT-4
HCT-116 = test system: HCT-116
KM-20L2 = test system: KM-20L2
M14 = test system: M14
DMS-114 = test system: DMS-114
DMS-273 = test system: DMS-273
KM12 = test system: KM12
HCT-15 = test system: HCT-15
M19-MEL = test system: M19-MEL
SK-MEL-5 = test system: SK-MEL-5
EKVX = test system: EKVX
ACHN = test system: ACHN
SF-295 = test system: SF-295
NCI-H460 = test system: NCI-H460
LXFL 529 = test system: LXFL 529
OVCAR-8 = test system: OVCAR-8
RPMI-8226 = test system: RPMI-8226
SR = test system: SR
HOP-18 = test system: HOP-18
HT-29 = test system: HT-29
RXF 393 = test system: RXF 393

Measured: GI50

CCn1c2c(c3ccccc31)C(c1ccccc1)CC1C(=O)N(c3ccccc3)C(=O)C21 (centres undefined)
inactive: NCI-H226 31.8 µM | OVCAR-4 > 100 µM | U-251 > 10 µM | A498 5.78 µM | OVCAR-3 > 100 µM | K562 89.5 µM | SF-268 > 100 µM | CCRF-CEM > 100 µM | SW-620 > 100 µM | UACC-257 > 100 µM | DLD-1 74 µM | SNB-19 50.5 µM | SK-MEL-2 61 µM | Malme-3M 24 µM | 786-0 21 µM | HOP-92 26.2 µM | SK-MEL-28 41.6 µM | HCC 2998 59 µM | SNB-78 36.8 µM | NCI-H23 > 100 µM | CAKI-1 35.2 µM | HL-60 68.9 µM | LOX IMVI > 100 µM | SN12C 67.1 µM | SNB-75 17.6 µM | HOP-62 87.1 µM | UACC-62 38.9 µM | OVCAR-5 > 100 µM | A549 21.9 µM | UO-31 36.1 µM | SK-OV-3 24.7 µM | SF-539 35.4 µM | IGROV-1 33 µM | NCI-H522 72.8 µM | TK-10 > 100 µM | XF498 15.8 µM | COLO 205 > 100 µM | MOLT-4 91.2 µM | HCT-116 55 µM | KM-20L2 > 100 µM | M14 > 100 µM | DMS-114 89.5 µM | DMS-273 51.4 µM | KM12 > 100 µM | M19-MEL > 100 µM | SK-MEL-5 31.7 µM | EKVX 42.8 µM | ACHN 57.5 µM | SF-295 > 100 µM | NCI-H460 54.1 µM | LXFL 529 42.8 µM | OVCAR-8 9.59 µM
> 100 µM: HCT-15

COc1cc(Cn2c3ccccc3c3cc(C)c4c(c32)C=CC(C)(CCC=C(C)C)O4)cc2c1[nH]c1ccccc12 (centres undefined) [CHRESTFOLINE C]
inactive: OVCAR-4 > 100 µM | U-251 > 100 µM | A498 > 100 µM | OVCAR-3 > 100 µM | K562 > 100 µM | SF-268 > 100 µM | CCRF-CEM > 100 µM | SW-620 > 100 µM | UACC-257 > 100 µM | DLD-1 > 100 µM | SNB-19 > 100 µM | SK-MEL-2 > 100 µM | RPMI-8226 > 100 µM | SR > 100 µM | Malme-3M > 100 µM | 786-0 > 100 µM | HOP-92 > 100 µM | SK-MEL-28 > 100 µM | HCC 2998 > 100 µM | SNB-78 > 100 µM | NCI-H23 > 100 µM | CAKI-1 > 100 µM | HL-60 > 100 µM | LOX IMVI > 100 µM | SN12C > 100 µM | HOP-18 > 100 µM | SNB-75 > 100 µM | HOP-62 > 100 µM | UACC-62 > 100 µM | OVCAR-5 > 100 µM | A549 > 100 µM | UO-31 > 100 µM | SK-OV-3 > 100 µM | SF-539 > 100 µM | HT-29 > 100 µM | IGROV-1 > 100 µM | NCI-H522 > 100 µM | TK-10 > 100 µM | COLO 205 > 100 µM | MOLT-4 > 100 µM | HCT-116 > 100 µM | KM-20L2 > 100 µM | M14 > 100 µM | DMS-114 > 100 µM | DMS-273 > 100 µM | KM12 > 100 µM | M19-MEL > 100 µM | SK-MEL-5 > 100 µM | RXF 393 > 100 µM | EKVX > 100 µM | ACHN > 100 µM | SF-295 > 100 µM | NCI-H460 > 100 µM | LXFL 529 88.5 µM | OVCAR-8 > 100 µM
> 100 µM: HCT-15
